Data: patent publication US12390446B2 (RESEARCH TRIANGLE INSTITUTE, priority 2017, dated 2025)
Read-outs that look alike come from different tables or passages of the source. Blank lines part the entries; values can stand above or below the molecule they belong to.

How the values were obtained:
Assay type in all cases: cell-based
[1] = biological target: T1, NPFF1 receptor (human NPFFR1 in CHO-RD-HGA16 cells) (Homo sapiens, UniProt Q9GZQ6); assay: Calcium mobilization functional Ke assay, NPFF1
T1 construct: expressed in transfected cells

[2] = biological target: NPFF1 receptor (human NPFFR1-CHO cells) (Homo sapiens, UniProt Q9GZQ6); assay: Lance cAMP functional Ke assay, NPFF1; conditions: Table 5
Method: (§1) Kinetic solubility and bidirectional MDCK-MDR1 permeability assays of the compounds were performed by Paraza Pharma Inc. (Montreal, Canada) according to their standard protocols.
(§2) cAMP assay. Stable human NPFFR1-CHO (ES-491-C) and NPFFR2-CHO (ES-490-C) cell lines were purchased from PerkinElmer and used with the Lance@ Ultra kit (TRF0262) to detect cAMP accumulation in low volume 96-well plates. Stimulation buffer containing 1× HBSS, 5 mM HEPES, 0.1% BSA stabilizer, and 0.5 mM IBMX was prepared and titrated to 7.4 at room temperature.
(§3) A single concentration of each test compound was prepared at 4× the desired final concentration in 2% DMSO/stimulation buffer and 5 μL was added to the assay plate.
(§4) Cells were lifted with versene and spun at 270 g for 10 minutes. The cell pellet was resuspended in stimulation buffer and 4,000 cells (10 μL) were added to each well. After incubating for 30 min at RT, Eu-cAMP tracer and uLIGHT-anti-cAMP working solutions were added per the manufacturer's instructions. After incubation at RT for 1 hour, the TR-FRET signal (ex 337 nm) was read on a CLARIOstar multimode plate reader (BMG Biotech, Cary NC).
(§5) Fluorescence values at 665 nm were plotted against the log of compound concentration using a nonlinear regression analysis to generate EC50 values (GraphPad Prism, GraphPad Software, Inc., San Diego CA). Ke values were calculated using the same equation as described in the calcium mobilization methods.

[3] = biological target: T2, NPFF2 receptor (human NPFFR2 in CHO-RD-HGA16 cells) (Homo sapiens, UniProt Q9Y5X5); assay: Calcium mobilization functional Ke assay, NPFF2; conditions: for Kb: read-out: NPFF2 Ke
T2 construct: expressed in transfected cells

[4] = biological target: NPFF2 receptor (human NPFFR2-CHO cells) (Homo sapiens, UniProt Q9Y5X5); assay: Lance cAMP functional Ke assay, NPFF2; conditions: Table 5
Method: as §1, §2, §3, §4, §5

[5] = Table 3, mean ± SEM, read-out: NPFF1 Ke
[6] = Table 4, mean ± SEM, read-out: NPFF1 Ke
[7] = Table 1, mean ± SEM, apparent dissociation constant vs NPFF, read-out: NPFF1 Ke
[8] = Table 1, footnote c: pre-incubation of antagonist and test compound 45 min or 1 hr
[9] = calcium mobilization assay, read-out: NPFF1 Ke
[10] = Table 2, 4-(4-methylthio)benzylamino series, mean ± SEM, read-out: NPFF1 Ke

T1 sequence (Q9GZQ6 whole entry): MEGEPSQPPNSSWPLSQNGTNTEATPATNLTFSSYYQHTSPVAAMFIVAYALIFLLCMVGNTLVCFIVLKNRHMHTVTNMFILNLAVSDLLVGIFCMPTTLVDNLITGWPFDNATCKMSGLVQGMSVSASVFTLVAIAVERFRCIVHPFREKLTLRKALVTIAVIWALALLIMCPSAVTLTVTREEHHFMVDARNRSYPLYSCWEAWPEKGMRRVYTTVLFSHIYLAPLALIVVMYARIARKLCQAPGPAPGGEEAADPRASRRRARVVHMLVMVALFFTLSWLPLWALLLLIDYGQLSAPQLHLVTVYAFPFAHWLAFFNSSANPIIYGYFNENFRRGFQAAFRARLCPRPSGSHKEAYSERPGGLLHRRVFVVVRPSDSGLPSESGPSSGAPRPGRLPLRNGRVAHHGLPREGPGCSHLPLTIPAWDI
T2 sequence (Q9Y5X5 whole entry): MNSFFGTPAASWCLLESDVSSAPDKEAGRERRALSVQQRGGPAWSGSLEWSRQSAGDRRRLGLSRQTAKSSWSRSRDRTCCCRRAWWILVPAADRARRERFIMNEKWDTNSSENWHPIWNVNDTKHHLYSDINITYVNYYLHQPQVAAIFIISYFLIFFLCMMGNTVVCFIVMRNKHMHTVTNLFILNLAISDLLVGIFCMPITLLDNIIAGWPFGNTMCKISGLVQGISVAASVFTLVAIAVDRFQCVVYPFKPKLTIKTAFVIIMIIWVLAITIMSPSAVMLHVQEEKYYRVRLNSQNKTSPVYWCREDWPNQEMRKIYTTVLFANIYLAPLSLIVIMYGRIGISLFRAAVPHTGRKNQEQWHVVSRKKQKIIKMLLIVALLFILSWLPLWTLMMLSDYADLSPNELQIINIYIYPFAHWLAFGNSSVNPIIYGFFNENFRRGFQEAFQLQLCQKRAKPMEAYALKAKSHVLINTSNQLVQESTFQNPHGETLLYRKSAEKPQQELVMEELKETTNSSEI
Chain of NPFF1 receptor (human NPFFR1-CHO cells) (Q9GZQ6 whole entry): as the sequence (Q9GZQ6 whole entry) above
Chain of NPFF2 receptor (human NPFFR2-CHO cells) (Q9Y5X5 whole entry): as the sequence (Q9Y5X5 whole entry) above

Compound: COc1ccc(CN[C@H]2C[C@@H](C(=O)NCCc3ccccc3)N(Cc3cccc(Cl)c3)C2)cc1 [Compound 77, (2S,4S)-1-[(3-Chlorophenyl)methyl]-4-{[(4-methoxyphenyl)methyl]amino}-N-(2-phenylethyl)pyrrolidine-2-carboxamide]
Kb [1, 6]: 0.58 ± 0.05 µM
preference / selectivity for NPFF1 over NPFF2 ([1]; from calcium mobilization Ke values): > 10 fold
Kb ([3]; Table 4, mean ± SEM): 4.1 µM

Compound: CCCCCCN1C[C@@H](NCc2ccc(OC)cc2)C[C@H]1C(=O)NCCc1ccccc1 [Compound 74, (2S,4S)-1-Hexyl-4-{[(4-methoxyphenyl)methyl]amino}-N-(2-phenylethyl)pyrrolidine-2-carboxamide]
Kb [1, 6]: 1.45 µM
Kb ([3]; Table 4, mean ± SEM): 7.1 µM

Compound: COc1ccc(CN[C@H]2C[C@@H](C(=O)NCCc3ccccc3)N(Cc3ccccc3)C2)cc1 [Compound 76, (2S,4S)-1-Benzyl-4-{[(4-methoxyphenyl)methyl]amino}-N-(2-phenylethyl)pyrrolidine-2-carboxamide]
Kb [1, 6]: 1.27 µM
Kb ([3]; Table 4, mean ± SEM): > 10 µM

Compound: CCNC(=O)[C@@H]1C[C@H](NCc2ccc(OC)cc2)CN1Cc1ccccc1Cl [Compound 11, (2S,4S)-1-[(2-Chlorophenyl)methyl]-N-ethyl-4-{[(4-methoxyphenyl)methyl]amino}pyrrolidine-2-carboxamide]
Kb [1, 7]: > 10 µM
NPFF1 antagonist activity ([1]; at 10 μM): inactive
Kb [1, 9]: > 10 µM
Kb ([3]; Table 1, mean ± SEM, apparent dissociation constant vs NPFF): > 10 µM
NPFF2 antagonist activity ([3]; at 10 μM): inactive

Compound: O=C(NCCc1ccc([N+](=O)[O-])cc1)[C@@H]1C[C@H](NCCc2ccccc2)CN1Cc1ccccc1Cl [Compound 58]
Kb [1, 5]: 1.15 µM
Kb ([3]; Table 3, mean ± SEM): 1.13 µM

Compound: CCCCCN[C@H]1C[C@@H](C(=O)NCCc2ccc([N+](=O)[O-])cc2)N(Cc2ccccc2Cl)C1 [Compound 54, (2S,4S)-1-[(2-Chlorophenyl)methyl]-N-[2-(4-nitrophenyl)ethyl]-4-(pentylamino) pyrrolidine-2-carboxamide]
Kb [1, 5]: 2.48 µM
Kb ([3]; Table 3, mean ± SEM): > 10 µM

Compound: CCCCCNC(=O)[C@@H]1C[C@H](NCc2ccc(SC)cc2)CN1Cc1ccccc1Cl [Compound 44, (2S,4S)-1-[(2-Chlorophenyl)methyl]-4-{[(4-(methylthio)phenyl)methyl]amino}-N-pentylpyrrolidine-2-carboxamide]
Kb [1, 10]: 0.36 ± 0.05 µM
Kb [1, 9]: 0.36 µM
Kb ([3]; Table 2, footnote c: pre-incubation 1 hr): 0.97 ± 0.03 µM

Compound: O=C(NCCc1ccc([N+](=O)[O-])cc1)[C@@H]1C[C@H](NCc2ccccc2)CN1Cc1ccccc1Cl [Compound 56, (2S,4S)-4-(Benzylamino)-1-[(2-chlorophenyl)methyl]-N-[2-(4-nitrophenyl)ethyl]pyrrolidine-2-carboxamide]
Kb [1, 5]: 1.23 µM
Kb ([3]; Table 3, mean ± SEM): 1.4 µM

Compound: CCCN(CCC)C(=O)[C@@H]1C[C@H](NCc2ccc(OC)cc2)CN1Cc1ccccc1Cl [Compound 41, (2S,4S)-1-[(2-Chlorophenyl)methyl]-4-{[(4-methoxyphenyl)methyl]amino}-N,N-dipropylpyrrolidine-2-carboxamide]
Kb ([1]; Table 1, footnote c: pre-incubation of antagonist and test compound 45 min or 1 hr, read-out: NPFF1 Ke): 0.88 ± 0.12 µM
Kb [1, 9]: 0.88 µM
type of antagonism in curve-shift assays ([1]; standard incubation, competitive profile with longer incubations): insurmountable antagonism
Kb [3, 8]: 1.73 µM

Compound: COc1ccc(CN[C@H]2C[C@@H](C(=O)NCCc3ccccc3)N(CC3CCCCC3)C2)cc1 [Compound 75, (2S,4S)-1-(Cyclohexylmethyl)-4-{[(4-methoxyphenyl)methyl]amino}-N-(2-phenylethyl) pyrrolidine-2-carboxamide]
NPFF1 Ke ([1]; Table 4, mean ± SEM): 650 ± 70 nM
NPFF2 Ke ([3]; Table 4, mean ± SEM): 3,640 ± 830 nM

Compound: COc1ccc(CN[C@H]2C[C@@H](C(=O)NCCc3ccccc3)N(Cc3ccc(O)cc3)C2)cc1 [Compound 84, (2S,4S)-1-[(4-Hydroxyphenyl)methyl]-4-{[(4-methoxyphenyl)methyl]amino}-N-(2-phenylethyl)pyrrolidine-2-carboxamide]
Kb [1, 6]: > 10 µM
Kb ([3]; Table 4, mean ± SEM): > 10 µM

Compound: COc1ccc(CN[C@H]2C[C@@H](C(=O)NCCCc3ccccc3)N(Cc3ccccc3Cl)C2)cc1 [Compound 25, (2S,4S)-1-[(2-Chlorophenyl)methyl]-4-{[(4-methoxyphenyl)methyl]amino}-N-(3-phenylpropyl)pyrrolidine-2-carboxamide]
Kb ([1]; read-out: NPFF1 Ke): > 10 µM
Kb [3, 8]: 2.6 µM

Compound: CCNC(=O)[C@@H]1C[C@H](NCc2ccc(SC)cc2)CN1Cc1ccccc1Cl [Compound 43, (2S,4S)-1-[(2-Chlorophenyl)methyl]-N-ethyl-4-{[(4-(methylthio)phenyl)methyl]amino}pyrrolidine-2-carboxamide]
Kb [1, 10]: 1.08 µM
Kb ([3]; Table 2, 4-(4-methylthio)benzylamino series, mean ± SEM): 5.6 µM

The remaining lines, values ahead:

Kb [1, 5]: 0.68 ± 0.18 µM
Kb ([1]; Table 5, read-out: Calcium mobilization assay Ke NPFF1): 0.51 ± 0.18 µM
Kb [2]: 1.55 µM
Kb ([3]; Table 3, mean ± SEM): 1.86 µM
Kb [4]: 1.76 µM
Compound: O=C(NCCc1ccc([N+](=O)[O-])cc1)[C@@H]1C[C@H](NCc2ccc(Cl)cc2)CN1Cc1ccccc1Cl [Compound 63, (2S,4S)-1-[(2-Chlorophenyl)methyl]-4-{[(4-chlorophenyl)methyl]amino}-N-[2-(4-nitrophenyl)ethyl]pyrrolidine-2-carboxamide]

Kb [1, 6]: 1.86 µM
Kb ([3]; Table 4, mean ± SEM): > 10 µM
Compound: COc1ccc(CN[C@H]2C[C@@H](C(=O)NCCc3ccccc3)N(Cc3ccc4c(c3)OCO4)C2)cc1 [Compound 88, (2S,4S)-1-(2H-1,3-Benzodioxol-5-ylmethyl)-4-{[(4-methoxyphenyl)methyl]amino}-N-(2-phenylethyl)pyrrolidine-2-carboxamide]

Kb [1, 7]: 0.82 ± 0.08 µM
Kb [3, 8]: 1.49 µM
Compound: CCCCCCNC(=O)[C@@H]1C[C@H](NCc2ccc(OC)cc2)CN1Cc1ccccc1Cl [Compound 18, (2S,4S)-1-[(2-Chlorophenyl)methyl]-4-{[(4-methoxyphenyl)methyl]amino}-N-hexylpyrrolidine-2-carboxamide]

Kb [1, 5]: 1.39 µM
Kb ([3]; Table 3, mean ± SEM): 2.82 µM
Compound: COc1cccc(CN[C@H]2C[C@@H](C(=O)NCCc3ccc([N+](=O)[O-])cc3)N(Cc3ccccc3Cl)C2)c1 [Compound 59, (2S,4S)-1-[(2-Chlorophenyl)methyl]-4-{[(3-methoxyphenyl)methyl]amino}-N-[2-(4-nitrophenyl)ethyl]pyrrolidine-2-carboxamide]

Kb [1, 7]: 1.88 µM
Kb [3, 8]: 1.26 µM
Compound: COc1ccc(CN[C@H]2C[C@@H](C(=O)NC(C)(C)C)N(Cc3ccccc3Cl)C2)cc1 [Compound 15, (2S,4S)—N-tert-Butyl-1-[(2-chlorophenyl)methyl]-4-{[(4-methoxyphenyl)methyl]amino}pyrrolidine-2-carboxamide]

Kb [1, 5]: 2.32 µM
Kb ([3]; Table 3, mean ± SEM): 4.47 µM
Compound: CCCCCCN[C@H]1C[C@@H](C(=O)NCCc2ccc([N+](=O)[O-])cc2)N(Cc2ccccc2Cl)C1 [Compound 55, (2S,4S)-1-[(2-Chlorophenyl)methyl]-4-(hexylamino)-N-[2-(4-nitrophenyl)ethyl]pyrrolidine-2-carboxamide]

Kb [1, 6]: 2.15 µM
Kb ([3]; Table 4, mean ± SEM): 4.85 µM
Compound: COc1ccc(CN[C@H]2C[C@@H](C(=O)NCCc3ccccc3)N(Cc3ccc(Cl)cc3)C2)cc1 [Compound 78, (2S,4S)-1-[(4-Chlorophenyl)methyl]-4-{[(4-methoxyphenyl)methyl]amino}-N-(2-phenylethyl)pyrrolidine-2-carboxamide]

Kb [1, 6]: 3.51 µM
Kb ([3]; Table 4, mean ± SEM): > 10 µM
Compound: COc1ccc(CN[C@H]2C[C@@H](C(=O)NCCc3ccccc3)N(Cc3ccc(N(C)C)cc3)C2)cc1 [Compound 85, (2S,4S)-1-{[4-(Dimethylamino)phenyl]methyl}-4-{[(4-methoxyphenyl)methyl]amino}-N-(2-phenylethyl)pyrrolidine-2-carboxamide]

Kb [1, 6]: 1.23 µM
Kb ([3]; Table 4, mean ± SEM): 5.11 µM
Compound: COc1ccc(CN[C@H]2C[C@@H](C(=O)NCCc3ccccc3)N(Cc3ccccc3OC)C2)cc1 [Compound 79, (2S,4S)-1-[(2-Methoxyphenyl)methyl]-4-{[(4-methoxyphenyl)methyl]amino}-N-(2-phenylethyl)pyrrolidine-2-carboxamide]

Kb [1, 5]: 5.16 µM
Kb ([3]; Table 3, mean ± SEM): > 10 µM
Compound: CCCN[C@H]1C[C@@H](C(=O)NCCc2ccc([N+](=O)[O-])cc2)N(Cc2ccccc2Cl)C1 [Compound 52]

Kb [1, 6]: 2.46 µM
Kb ([3]; Table 4, mean ± SEM): > 10 µM
Compound: COc1ccc(CN[C@H]2C[C@@H](C(=O)NCCc3ccccc3)N(Cc3cccc(OC)c3)C2)cc1 [Compound 80, (2S,4S)-1-[(3-Methoxyphenyl)methyl]-4-{[(4-methoxyphenyl)methyl]amino}-N-(2-phenylethyl)pyrrolidine-2-carboxamide]
